In patent publication US5298495A, “Partricin derivatives” (SPA Societa' Prodotti Antibiotici SpA, priority 1990, dated 1994):
≈ marks a conversion by molar mass, not a printed value. Like-named read-outs stand apart in the source and are kept apart here.

Key:
[1] = Solubility and reaction in water; format: physicochemical
[2] = system: C. albicans 73; assay: Microbiological activity on C. albicans (MIC); format: cell-based; details: Fluid Sab. Med, 36° C.; for MIC: Candida albicans, 73
From the text: (§1) MIC (ng/ml) Hemolytic con.(mcg/ml)
(§2) C. albicans 73 rat erytrocytes, […]

[3] = system: rat erytrocytes; assay: Hemolytic activity on rat erythrocytes; format: cell-based
From the text: as §1, §2

[4] = Acute toxicity in mice (DL50); format: in vivo; details: mouse, in vivo
[5] = system: mice; assay: Acute toxicity in mice (DL50); format: in vivo
[6] = cited from earlier work
[7] = 24 h, read-out: MIC C. albicans 73, 24 h
[8] = 48 h, read-out: MIC C. albicans 73, 48 h
[9] = rat erytrocytes, 4 h at 37° C., minimum
[10] = rat erytrocytes, 4 h at 37° C., total

Row | Compound | MIC [2, 7] [µg/mL] | MIC [2, 8] [µg/mL] | Hemolytic con. total (THC) [3] [µg/mL] | Hemolytic con. min. (MHC) ([3]; rat, 240 min) [µg/mL] | LD50 ([4]; ip, read-out: DL50 mice i.p.) [mg/kg] | other results
1 | CNc1ccc(C(=O)CC(O)CCC(C)C2OC(=O)CC(O)CC(=O)CC(O)CC(O)CC(O)CC(O)CC3(O)CC(O)C(C(=O)NCCN(C)C)C(CC(OC4OC(C)C(O)C(NC(=O)CN(C)C)C4O)C=CC=CC=CC=CC=CC=CC=CC2C)O3)cc1 (centres unmarked) [Example 5, N-DIMETHYLAMINOACETYL-PARTRICIN A 2-DIMETHYL-AMINOETHYLAMIDE DIASPARTATE] |  |  |  |  |  | solubility in water [1]: soluble in water; pH of aqueous solution (almost neutral reaction) ([1]; in water): 6
2 | CNc1ccc(C(=O)CC(O)CCC(C)C2OC(=O)CC(O)CC(=O)CC(O)CC(O)CC(O)CC(O)CC3(O)CC(O)C(C(=O)NCCN(C)C)C(CC(OC4OC(C)C(O)C(NC(=O)CN5CCN(C)CC5)C4O)C=CC=CC=CC=CC=CC=CC=CC2C)O3)cc1 (centres unmarked) [Partr. A, drawing 39, NHCH2 CH2N(CH3)2] | 0.0106 (≈ 0.00792 µM) | 0.03 (≈ 0.0224 µM) | 18 | 2 | > 100 | 
3 | CNc1ccc(C(=O)CC(O)CCC(C)C2OC(=O)CC(O)CC(=O)CC(O)CC(O)CC(O)CC(O)CC3(O)CC(O)C(C(=O)N4CCN(C)CC4)C(CC(OC4OC(C)C(O)C(NC(=O)CN5CCN(CCO)CC5)C4O)C=CC=CC=CC=CC=CC=CC=CC2C)O3)cc1 (centres unmarked) [Partr. A, drawing 48, drawing 49] | 0.0075 (≈ 0.00544 µM) | 0.015 (≈ 0.0109 µM) | 0.7 | 0.2 |  | 
4 | partricin [Partr., H, OH, reference compound] |  |  |  |  |  | MIC C. albicans 73, 24 h ([2]; 24 h): 0.03 µg/mL; MIC C. albicans 73, 48 h ([2]; 48 h): 0.06 µg/mL; Hemolytic con. min. (MHC) [3, 9]: < 0.2 µg/mL; Hemolytic con. total (THC) [3, 10]: < 0.2 µg/mL; DL50 mice i.p. [5]: 0.63 mg/kg
5 | mepartricin [Partr., H, OCH3, reference compound] |  |  |  |  |  | MIC C. albicans 73, 24 h ([2]; 24 h): 0.0075 µg/mL; MIC C. albicans 73, 48 h ([2]; 48 h): 0.03 µg/mL; Hemolytic con. min. (MHC) [3, 9]: 0.7 µg/mL; Hemolytic con. total (THC) [3, 10]: 18 µg/mL; DL50 mice i.p. [5]: 15.8 mg/kg; DL50 mice i.v. ([5]; i.v.): 5.02 mg/kg
6 | CNc1ccc(C(=O)CC(O)CCC(C)C2OC(=O)CC(O)CC(=O)CC(O)CC(O)CC(O)CC(O)CC3(O)CC(O)C(C(=O)NCCN(C)C)C(CC(OC4OC(C)C(O)C(NC(=O)CCN5CCCCC5)C4O)C=CC=CC=CC=CC=CC=CC=CC2C)O3)cc1 (centres unmarked) [Partr. A, drawing 33, NHCH2 CH2N(CH3)2] | 0.0075 (≈ 0.00561 µM) | 0.03 (≈ 0.0224 µM) | 18 | 6 | 43.6 | 
7 | CNc1ccc(C(=O)CC(O)CCC(C)C2OC(=O)CC(O)CC(=O)CC(O)CC(O)CC(O)CC(O)CC3(O)CC(O)C(C(=O)N4CCN(CCO)CC4)C(CC(OC4OC(C)C(O)C(NC(=O)CCN5CCCCC5)C4O)C=CC=CC=CC=CC=CC=CC=CC2C)O3)cc1 (centres unmarked) [Partr. A, drawing 34, drawing 35] | 0.0075 (≈ 0.00544 µM) | 0.03 (≈ 0.0218 µM) | 2 | 0.2 |  | 
8 | CNc1ccc(C(=O)CC(O)CCC(C)C2OC(=O)CC(O)CC(=O)CC(O)CC(O)CC(O)CC(O)CC3(O)CC(O)C(C(=O)OC)C(CC(OC4OC(C)C(O)C(NC(=O)CCN5CCCCC5)C4O)C=CC=CC=CC=CC=CC=CC=CC2C)O3)cc1 (centres unmarked) [Partr. A, drawing 32, OCH3] | 0.0075 (≈ 0.00586 µM) | 0.0424 (≈ 0.0331 µM) | 18 | 3.5 | > 30 | 
9 | CNc1ccc(C(=O)CC(O)CCC(C)C2OC(=O)CC(O)CC(=O)CC(O)CC(O)CC(O)CC(O)CC3(O)CC(O)C(C(=O)OC)C(CC(OC4OC(C)C(O)C(NC(=O)CN5CCN(C)CC5)C4O)C=CC=CC=CC=CC=CC=CC=CC2C)O3)cc1 (centres unmarked) [Partr. A, drawing 38, OCH3] | 0.015 (≈ 0.0117 µM) | 0.03 (≈ 0.0234 µM) | 18 | 0.7 | 29.3 | 
10 | CNc1ccc(C(=O)CC(O)CCC(C)C2OC(=O)CC(O)CC(=O)CC(O)CC(O)CC(O)CC(O)CC3(O)CC(O)C(C(=O)NCCN(C)C)C(CC(OC4OC(C)C(O)C(NC(=O)CN5CCN(CCO)CC5)C4O)C=CC=CC=CC=CC=CC=CC=CC2C)O3)cc1 (centres unmarked) [Partr. A, drawing 45, NHCH2 CH2N(CH3)2] | 0.0075 (≈ 0.00548 µM) | 0.0212 (≈ 0.0155 µM) | 18 | 0.7 | > 100 | 
11 | CNc1ccc(C(=O)CC(O)CCC(C)C2OC(=O)CC(O)CC(=O)CC(O)CC(O)CC(O)CC(O)CC3(O)CC(O)C(C(=O)NCCc4ccccn4)C(CC(OC4OC(C)C(O)C(NC(=O)CN(C)C)C4O)C=CC=CC=CC=CC=CC=CC=CC2C)O3)cc1 (centres unmarked) [Partr. A, COCH2N(CH3)2, drawing 50] | 0.015 (≈ 0.0114 µM) | 0.0424 (≈ 0.0322 µM) | > 18 | 18 | > 300 | LD50 ([4]; iv, read-out: DL50 mice i.v.): 76.8 mg/kg
12 | CNc1ccc(C(=O)CC(O)CCC(C)C2OC(=O)CC(O)CC(=O)CC(O)CC(O)CC(O)CC(O)CC3(O)CC(O)C(C(=O)N4CCN(CCO)CC4)C(CC(OC4OC(C)C(O)C(NC(=O)CN(C)C)C4O)C=CC=CC=CC=CC=CC=CC=CC2C)O3)cc1 (centres unmarked) [Partr. A, COCH2N(CH3)2, drawing 30] | 0.0075 (≈ 0.00566 µM) | 0.0212 (≈ 0.016 µM) | 0.7 | 0.2 |  | 
13 | mepartricin |  |  |  |  |  | solubility in water of mepartricin (words, background) [6]: water-insoluble
14 | CNc1ccc(C(=O)CC(O)CCC(C)C2OC(=O)CC(O)CC(=O)CC(O)CC(O)CC(O)CC(O)CC3(O)CC(O)C(C(=O)N4CCN(C)CC4)C(CC(OC4OC(C)C(O)C(NC(=O)CCN5CCCCC5)C4O)C=CC=CC=CC=CC=CC=CC=CC2C)O3)cc1 (centres unmarked) [Partr. A, drawing 36, drawing 37] | 0.0075 (≈ 0.00556 µM) | 0.015 (≈ 0.0111 µM) | 3.5 | 0.2 |  | 
15 | CNc1ccc(C(=O)CC(O)CCC(C)C2OC(=O)CC(O)CC(=O)CC(O)CC(O)CC(O)CC(O)CC3(O)CC(O)C(C(=O)N4CCN(C)CC4)C(CC(OC4OC(C)C(O)C(NC(=O)CN(C)C)C4O)C=CC=CC=CC=CC=CC=CC=CC2C)O3)cc1 (centres unmarked) [Partr. A, COCH2N(CH3)2, drawing 31] | 0.0075 (≈ 0.00579 µM) | 0.0212 (≈ 0.0164 µM) |  |  | 3.6 | Hemolytic con. min. (MHC) [3, 9]: 0.2 µg/mL; Hemolytic con. total (THC) [3, 10]: 2 µg/mL
16 | CNc1ccc(C(=O)CC(O)CCC(C)C2OC(=O)CC(O)CC(=O)CC(O)CC(O)CC(O)CC(O)CC3(O)CC(O)C(C(=O)N4CCN(C)CC4)C(CC(OC4OC(C)C(O)C(NC(=O)CN5CCN(C)CC5)C4O)C=CC=CC=CC=CC=CC=CC=CC2C)O3)cc1 (centres unmarked) [Partr. A, drawing 42, drawing 43] | 0.0075 (≈ 0.00556 µM) | 0.0212 (≈ 0.0157 µM) |  |  | 3.8 | Hemolytic con. min. (MHC) [3, 9]: 0.2 µg/mL; Hemolytic con. total (THC) [3, 10]: 0.7 µg/mL
17 | CNc1ccc(C(=O)CC(O)CCC(C)C2OC(=O)CC(O)CC(=O)CC(O)CC(O)CC(O)CC(O)CC3(O)CC(O)C(C(=O)NCCc4ccccn4)C(CC(OC4OC(C)C(O)C(NC(=O)CCN5CCCCC5)C4O)C=CC=CC=CC=CC=CC=CC=CC2C)O3)cc1 (centres unmarked) [Partr. A, drawing 51, drawing 52] | 0.03 (≈ 0.0219 µM) | 0.06 (≈ 0.0438 µM) | > 18 | 6 | > 300 | LD50 ([4]; iv, read-out: DL50 mice i.v.): 109 mg/kg
18 | CNc1ccc(C(=O)CC(O)CCC(C)C2OC(=O)CC(O)CC(=O)CC(O)CC(O)CC(O)CC(O)CC3(O)CC(O)C(C(=O)N4CCN(CCO)CC4)C(CC(OC4OC(C)C(O)C(NC(=O)CN5CCN(C)CC5)C4O)C=CC=CC=CC=CC=CC=CC=CC2C)O3)cc1 (centres unmarked) [Partr. A, drawing 40, drawing 41] | 0.015 (≈ 0.0109 µM) | 0.0212 (≈ 0.0154 µM) | 2 | 0.2 |  | 
19 | CNc1ccc(C(=O)CC(O)CCC(C)C2OC(=O)CC(O)CC(=O)CC(O)CC(O)CC(O)CC(O)CC3(O)CC(O)C(C(=O)NCCN(C)C)C(CC(OC4OC(C)C(O)C(NC(=O)CN(C)C)C4O)C=CC=CC=CC=CC=CC=CC=CC2C)O3)cc1 (centres unmarked) [Partr. A, COCH2N(CH3)2, NHCH2 CH2N(CH3)2, N-dimethylaminoacetyl-partricin A 2-dimethylaminoethylamide] | 0.0075 (≈ 0.00585 µM) | 0.015 (≈ 0.0117 µM) | > 18 | 18 | 158 | LD50 ([4]; iv, read-out: DL50 mice i.v.): 58 mg/kg
20 | CNc1ccc(C(=O)CC(O)CCC(C)C2OC(=O)CC(O)CC(=O)CC(O)CC(O)CC(O)CC(O)CC3(O)CC(O)C(C(=O)NCCCN(C)C)C(CC(OC4OC(C)C(O)C(NC(=O)CN(C)C)C4O)C=CC=CC=CC=CC=CC=CC=CC2C)O3)cc1 (centres unmarked) | 0.015 (≈ 0.0116 µM) | 0.03 (≈ 0.0231 µM) | 10.4 | 0.2 | 12.4 | 
21 | CNc1ccc(C(=O)CC(O)CCC(C)C2OC(=O)CC(O)CC(=O)CC(O)CC(O)CC(O)CC(O)CC3(O)CC(O)C(C(=O)OC)C(CC(OC4OC(C)C(O)C(NC(=O)CN5CCN(CCO)CC5)C4O)C=CC=CC=CC=CC=CC=CC=CC2C)O3)cc1 (centres unmarked) [Partr. A, drawing 44, OCH3] | 0.015 (≈ 0.0114 µM) | 0.03 (≈ 0.0229 µM) | 18 | 0.7 | > 30 | 
22 | CNc1ccc(C(=O)CC(O)CCC(C)C2OC(=O)CC(O)CC(=O)CC(O)CC(O)CC(O)CC(O)CC3(O)CC(O)C(C(=O)N4CCN(CCO)CC4)C(CC(OC4OC(C)C(O)C(NC(=O)CN5CCN(CCO)CC5)C4O)C=CC=CC=CC=CC=CC=CC=CC2C)O3)cc1 (centres unmarked) [Partr. A, drawing 46, drawing 47] | 0.0106 (≈ 0.00752 µM) | 0.0212 (≈ 0.015 µM) | 0.7 | 0.2 |  | 
